Experimental data reported in the METLIN SMRT retention time set (Domingo-Almenara et al. 2019).

Assay: gradient 5% acetonitrile 3 min, to 50% in 2 min, to 85% in 15 min, held 3 min, 100 µL/min
Details: column: Zorbax Extend-C18 2.1 x 50 mm; eluents: water / acetonitrile, 0.1% formic acid
Summary of the method: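 Each retention time is based on an adduct peak selected computationally and verified by manual inspection. Measurements used HPLC–quadrupole time-of-flight mass spectrometry in positive and negative ionization mode on mixtures of ~100 pure standards. Chromatography ran on a Zorbax Extend-C18 column (2.1 × 50 mm, 1.8 μm) at 100 μL/min with water and acetonitrile, each containing 0.1% formic acid, and dead and dwell volumes of 40 μL and 900 μL.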

| SMILES | RP-LC retention time |
| --- | --- |
| Cc1cc(C)n(Cc2nc(-c3ccc(NC(=O)Cc4ccccc4C)cc3)oc2C)n1 | 978 s |
| O=c1ccc(-c2nc(-c3ccc(Br)cc3)no2)cn1Cc1cc(=O)n2ccccc2n1 | 918 s |
| Cc1cccc(-n2c(=O)c3c(cc(C)n3C)n(CC(=O)Nc3ccc(Br)cc3F)c2=O)c1 | 963 s |
| COc1ccc(-n2c(=O)n(C)c(=O)c3cc(C(=O)Nc4ccc(Cl)cc4)cnc32)cc1 | 966 s |
| CCCS(=O)(=O)N1CCc2[nH]nc(-c3ccccc3)c2C1 | 752 s |
| Cc1sc(C)c(S(=O)(=O)Nc2ccccc2F)c1-c1cc(C(F)(F)F)on1 | 1130 s |
| COc1ccc(C2(C(=O)NCc3nn(C)c4c3CN(C)CC4)CC2)cc1 | 865 s |
| CC(=O)Nc1ccc(SCc2nnc(-c3ccc4c(c3)OCO4)o2)cc1 | 760 s |
| CCCn1cc(SCC(N)=O)c2ccccc21 | 730 s |
| O=C(Nc1ccc(N2CCN(c3ccccc3)C2=O)nc1)c1ccncc1 | 689 s |
| COc1ccc(S(=O)(=O)CCc2noc(C(=O)N3CCC4(CC3)OCCO4)n2)cc1 | 763 s |
| Cc1cc(S(=O)(=O)N2CC(c3nc(-c4ncccn4)no3)C2)c(Cl)cc1Cl | 834 s |
| Cc1ccc(-c2nc3nc(C)cc(N4CCN(c5ccccn5)CC4)n3n2)cc1 | 629 s |
| CCc1ccc(-c2cc(C(F)(F)F)on2)cc1S(=O)(=O)Nc1ccc(S(N)(=O)=O)cc1 | 947 s |
| Cn1ncc2c3ccccc3n(CCCC(=O)N3CCN(Cc4ccccc4)CC3)c2c1=O | 646 s |
| O=C(Oc1cccc(Oc2ccccc2)c1)N1CCOCC1 | 889 s |
| Cc1ccc(-c2nc3cccc(C)n3c2Nc2ccccc2C)cc1 | 797 s |
| COC(=O)c1cc2nc(-c3ccc(F)cc3)cc(C)n2n1 | 866 s |
| O=c1c2sccc2n(Cc2nc(-c3ccccc3)no2)c(=O)n1-c1ccccc1F | 969 s |
| O=C(Cc1ccc(Cl)cc1)NCc1nc(-c2ccc(-c3csc(C4CC4)n3)cc2)no1 | 1110 s |
| O=C(Nc1nnc(C2CCCO2)o1)c1ccc([N+](=O)[O-])s1 (centres undefined) | 685 s |
| COc1cc(C(=O)C(=O)c2ccc(O)c(OC)c2)ccc1O | 758 s |
| O=C(Nc1ccc(F)cc1F)c1c(O)c2cccnc2n(Cc2ccccc2)c1=O | 1310 s |
| Cc1ccccc1NC(=O)CSc1nc(=O)n(CCN(C)C)c2c1CCC2 | 610 s |
| COC(=O)c1nnn(-c2ccc(Cl)cc2)c1C(=O)OC | 908 s |
| CCc1ccc(NC(=O)Nc2cccn3ncnc23)cc1 | 872 s |
| COC(=O)c1c2c(nc3ccccc13)CCN(C(=O)Nc1ccccc1)C2 | 743 s |

| SMILES | RP-LC retention time |
| --- | --- |
| Cc1cccc(C)c1-n1ccn(Cc2nc(-c3ccc(F)cc3)no2)c(=O)c1=O | 884 s |
| O=C(c1ccc([N+](=O)[O-])o1)N1CCN(Cc2csc(-c3ccccc3)n2)CC1 | 601 s |
| COc1ccc(-c2csc(NC(=O)c3sc(C)nc3C)n2)cc1 | 886 s |
| Cc1cccc(-c2nc(C3CC(=O)N(c4ccc(F)c(Cl)c4)C3)no2)c1 (centres undefined) | 1140 s |
| Cc1ccc(-c2csc(-n3nc(C)c(CC(=O)Nc4ccc(C)cc4C)c3C)n2)cc1 | 1260 s |
| Cc1c(Cl)cccc1NC(=O)Cn1cnc2nc(N3CCOCC3)ncc2c1=O | 678 s |
| Cc1cccc(Nc2nc(-c3ccc([N+](=O)[O-])cc3)cs2)c1 | 1190 s |
| CSc1ccc(NC(=O)c2c(C)oc3ccn(Cc4ccc(F)cc4)c(=O)c23)cc1 | 1270 s |
| CCOC(=O)c1ccc2nc(C(F)(F)F)nc(NCCc3ccc(OC)c(OC)c3)c2c1 | 1140 s |
| COC(=O)c1sc(-c2ccccc2)cc1NC(=O)c1ccccc1[N+](=O)[O-] | 1110 s |
| CCN(CCNC(=O)CCc1cc2cc(C)ccc2[nH]c1=O)Cc1ccccc1 | 648 s |
| O=[N+]([O-])c1ccccc1S(=O)(=O)Nc1cccc(-c2ccc(N3CCOCC3)nn2)c1 | 646 s |
| Cc1nnc2ccc(-c3noc(-c4ccc(F)cc4)n3)cn12 | 865 s |
| O=C(Nc1cccc(N2CCCCC2=O)c1)OCc1ccccc1 | 724 s |
| O=C(Nc1ccc(Cl)cc1F)c1cnc(-c2ccc(F)cc2)nc1-c1ccncc1 | 992 s |
| COc1ccccc1N1CCN(c2cc(SCC(=O)Nc3ccc(C#N)cc3)ncn2)CC1 | 890 s |
| O=C(CSc1nccc2ccccc12)Nc1ccccc1C(F)(F)F | 1080 s |
| O=C(Cn1cnc(-c2noc(-c3ccc(F)cc3)n2)c1)NC1CCCCC1 | 862 s |
| CCCNC(=O)c1cc(C)nc2c(C)cc(C)cc12 | 650 s |
| O=C([C@@H]1C[C@H](F)CN1S(=O)(=O)Cc1ccc(Cl)cc1)N1CCc2ccccc2C1 | 1020 s |
| COc1cc(NC(=O)c2c(OC)cc(=O)n3c2CCCC3)cc(OC)c1 | 691 s |
| CN1C(=O)c2cccn2CC1CNC(=O)c1cccs1 (centres undefined) | 628 s |
| COc1ccc(CN2C[C@@H](CO)[C@H](c3ccncc3)C2)cc1C | 542 s |
| COc1cc(OC)cc(-c2noc(Cn3cnc4c(oc5ccccc54)c3=O)n2)c1 | 944 s |
| CC(C)NC(=O)Cn1c2ccccc2n2c(=O)cc(-c3ccc(F)cc3)nc12 | 702 s |
| CC1Oc2ccc(-c3csc(NC(=O)c4cccs4)n3)cc2N(C)C1=O (centres undefined) | 949 s |
| CCOC(=O)C1=C(CN2CCC(c3ccc(C)cc3)C2)NC(=O)NC1c1cccc(OC)c1OC (centres undefined) | 713 s |

Further lines, results first:

| RP-LC retention time | SMILES |
| --- | --- |
| 547 s | Cc1nc(C(=O)NCCCOC(C)C)c(C)n1C1CCN(C)CC1 |
| 731 s | O=C(N[C@H]1C[C@@H]2C[C@H]1CN2C(=O)c1cc2c(s1)CCCC2)c1cccnc1 |
| 792 s | CCOC(=O)C1CCN(C(=O)C2CCN(c3nnc(-c4ccc(OC)cc4)o3)CC2)CC1 |
| 589 s | Cc1cccc(CN2C[C@@H]3C(=O)N(CCCN4CCCC4=O)C(=O)[C@@H]3C2)c1 |
| 891 s | Cc1noc(-c2cccc(OC3CN(C(=O)NC4CCCCC4)C3)c2)n1 |
| 572 s | NC(=O)C1CCN(C(=O)Cc2csc(NC(=O)c3ccco3)n2)CC1 |
| 852 s | Cc1ccsc1C(=O)N1CCC2(CC1)NC(=O)N(Cc1cccc(Cl)c1)C2=O |
| 762 s | Cc1cc(CNC(=O)C2CCCC2)c(C)o1 |
| 641 s | COc1ccc(S(=O)(=O)NC2CCc3nnc(C)n3CC2)cc1Cl (centres undefined) |
| 703 s | CNC(=O)N1CCCN(C2=NS(=O)(=O)C(c3ccc(Cl)cc3)=C2C)CC1 |
| 648 s | CCCNC(=O)C1CCN(S(=O)(=O)c2cc(C(=O)N3CCCC3)n(C)c2)CC1 |
| 597 s | Cc1ccc(CN2CCC(CNC(=O)c3c(C)oc4c3C3=NCCN3C=N4)C2)cc1 (centres undefined) |
| 749 s | Cc1cccc(N2CCN(C(=O)C3CCN(c4cnc5nccnc5c4)CC3)CC2)c1 |
| 665 s | Cn1nnnc1C1CCCN(C(=O)C2CCCC2)C1 (centres undefined) |
| 685 s | Cc1ccc(C(CC(=O)NCCCN2CCCC2=O)N2Cc3ccccc3C2=O)cc1 (centres undefined) |
| 1020 s | CCOC(=O)c1cc(S(=O)(=O)N2CCCC2C(=O)Nc2cc(C)cc(C)c2)cn1C (centres undefined) |
| 686 s | COc1ccc(-c2cc3c4nnc(CCC(=O)N5CCCC5)n4ccn3n2)cc1 |
| 847 s | Cc1nc(-c2csc(S(=O)(=O)N3CCCC(C(=O)NCc4cccs4)C3)c2)no1 (centres undefined) |

| RP-LC retention time | SMILES |
| --- | --- |
| 888 s | O=C(c1ccc2[nH]ccc2c1)N1CCCN(C2CCN(CC3CC3)C2=O)CC1 (centres undefined) |
| 858 s | CCC(C)NC(=O)CN1C(=O)CCc2cc(S(=O)(=O)N3CCC(C)CC3)ccc21 (centres undefined) |
| 661 s | Cc1cc(Cl)ccc1NC(=O)N1CCC(n2cnnc2C2CC2)C1 (centres undefined) |
| 659 s | Cn1nc(C2CCN(C(=O)C3CCC3)CC2)c2c1CCOC2 |
| 564 s | COc1ccc(C2CN(S(=O)(=O)c3ccc(C#N)cc3)CCN2C)cc1 (centres undefined) |
| 558 s | c1cc(CN2CCN(c3cnn4c(C5CC5)nnc4c3)CC2)cs1 |
| 749 s | Cc1cc(C)n(Cc2c(C(=O)NCC34CCC=C3N(C)C(=O)CC4)noc2C)n1 (centres undefined) |
| 610 s | Cc1cccc(-c2noc(C3CCCN3C(=O)CNC(=O)c3cccs3)n2)c1 (centres undefined) |
| 671 s | CC(=O)N1CCc2cc(N3CC(C(=O)NCc4ccccc4)CC3=O)ccc21 (centres undefined) |
| 559 s | Cc1ccc2cc(CCC(=O)NCCN3CCN(C)CC3)c(=O)[nH]c2c1 |
| 752 s | Cc1cccc(N2CCN(C(=O)c3[nH]c(C)c(S(=O)(=O)N4CCOCC4)c3C)CC2C)c1 (centres undefined) |
| 616 s | CCCNc1cc(N2CCCC(CCC(=O)NC(C)C)C2)ncn1 (centres undefined) |
| 584 s | CC(=O)Nc1ccc(NC(=O)CSc2ccc(N3CCCC(C(=O)NC4CC4)C3)nn2)cc1 (centres undefined) |
| 882 s | COC(=O)c1cccc(NC(=O)Cn2c(C)cc(-c3nnc(C4CCC4)o3)c2C)c1 |
| 617 s | Cc1ccc(-n2c(N3CCCC(C(=O)NCCN4CCCCC4)C3)nc3ccsc3c2=O)cc1 (centres undefined) |
| 578 s | CCNC(=O)N1CCCC(Cn2cnc3cccnc32)C1 (centres undefined) |
| 586 s | COc1ccc(N2CCN(C(=O)c3ccc(=O)n(CCN4CCCC4)c3)CC2)cc1 |
